First: O=C(Nc1ccc(OC(F)(F)F)cc1)NC1CCN(C(=O)c2ccncc2)CC1
Second: CC(C)COc1ccc(C(=O)N/C(=C\c2ccc(OCC(F)(F)F)cc2)C(=O)NCCO)cc1
The melting point of the first is higher: 210 to 212 °C for the first, 176 to 178 °C for the second.

First: COc1ccc(-c2nnn(-c3ccc(C(F)(F)F)cc3Cl)c2CO)cc1
Second: COc1ccc(Cn2ccc3c(-c4ccco4)ncnc32)cc1
The melting point of the first is higher: 131 to 132 °C for the first, 130 to 131 °C for the second.

Compared with `CCN(CC)P(N)(N)=S`, `CN(C)CCCSc1ccc2ccc(N)nc2n1` is higher in melting point: 54 to 58 °C for the first, 164 °C for the second.

First: CC1=CC(O)C(OC(=O)c2nc[nH]c2C)C(C)(C)CC1=O (configuration not stated)
Second: CCOC(=O)c1ccc(C#C[Si](C)(C)C)nc1
The melting point of the first is higher: 201 to 202 °C for the first, 55 °C for the second.

First: CCCCCCCCCCCCCCCCCCN1C(=O)C2(CCCCC2)NC2(CCCCC2)C1=O
Second: CCCCCCCC(=O)N(C)Cc1cccc(-c2ccc(C=CC(=O)O)o2)c1
The melting point of the first is lower: 39 to 40 °C for the first, 96 to 98 °C for the second.

First: CCCCNC(=O)n1cc[nH]c1=S
Second: CCCCC(F)c1nc[nH]c(=O)c1Cl (configuration not stated)
The melting point of the first is lower: 66 to 68 °C for the first, 157 to 160 °C for the second.

Compared with `CCOC(=O)c1c(-c2ccccc2)n(C)c(-c2ccccc2)cc1=O`, `CCOC(=O)c1cnc2ccc(Oc3ccccc3)nc2c1Cl` is lower in melting point: 177 to 179 °C for the first, 133 to 137 °C for the second.

First: Cc1cc(-c2ccc(S(N)(=O)=O)cc2)n(-c2ccc(F)cc2F)c1
Second: NS(=O)(=O)c1ccc(-n2nc(C(=O)O)cc2-c2ccc(Cl)cc2)cc1
The melting point of the first is higher: 140 to 141 °C for the first, 126 to 128 °C for the second.

First: O=C(O)COc1cc2c(c(Cl)c1Cl)C(O)C1(CCCC1)C2 (configuration not stated)
Second: CC(C)(C)OC(=O)n1cccc1-c1ccc2c(c1)C1(CCCC1)C(=O)N2
The melting point of the first is lower: 135 °C for the first, 179 to 180 °C for the second.

Compared with `Cn1ncc(/C=C/C(=O)Nc2ccc(CS(C)(=O)=O)cc2)c1-c1ccc(F)cc1`, `CCOC(=O)c1c(-c2ccc(F)cc2)c2nccnc2c(=O)n1C` is lower in melting point: 251 to 252 °C for the first, 221 to 222 °C for the second.

Compared with `Cc1oc(-c2ccccc2)nc1COc1cc(CCl)ccn1`, `c1ccc(Cn2cnc3cncnc32)cc1` is lower in melting point: 104 to 105 °C for the first, 99 to 100 °C for the second.

Compared with `CCCCc1ncc(/C=C(\Cc2cccs2)C(N)=O)n1Cc1ccccc1[N+](=O)[O-]`, `CCCCCCOc1cc(C(=O)O)cc([N+](=O)[O-])c1C(=O)c1ccccc1` is lower in melting point: 183 to 185 °C for the first, 165 to 166 °C for the second.

First: CNC(=O)CCCc1cncc2ccc(OC)cc12
Second: COc1ccc2c(c1)CC(C)CC2=O (configuration not stated)
The melting point of the first is higher: 117 to 119 °C for the first, 70.5 to 70.6 °C for the second.

First: CC1CCCN(c2cncc(C(=O)Nc3nnn[nH]3)n2)C1 (configuration not stated)
Second: CNC1CCN(c2nncc3cc(OC)c(OC)cc23)CC1
The melting point of the first is higher: 236 to 238 °C for the first, 194 to 196 °C for the second.

First: CC(C)(C)OC(=O)N1CCC(Nc2nc3ccccc3n2Cc2cnc(CO)o2)CC1
Second: CC(=O)N1CCC(Nc2ncc3cc(-c4ccccc4C)c(=O)n(C4CCOCC4)c3n2)CC1
The melting point of the first is lower: 132 °C for the first, 235 to 237 °C for the second.

First: Cn1cc(C(=O)NCc2ccc(Cl)cc2)c(=O)c2cc(CN3CCSCC3)ccc21
Second: O=C(O)Cn1c(=O)n(S(=O)(=O)c2ccc(Cl)cc2)c(=O)c2ccc(Cl)cc21
The melting point of the first is higher: 215 to 219 °C for the first, 194 to 195 °C for the second.

First: CN1CC(CO)C=C2c3cccc4c3c(cn4C(C)(C)C)CC21 (configuration not stated)
Second: Cc1ccc(Cl)c(N2C(=O)C(=NO)c3ccccc32)c1Cl
The melting point of the first is lower: 181 to 183 °C for the first, 190 to 191 °C for the second.

First: O=C(CON1C(=O)c2ccccc2C1=O)NOCc1ccccc1
Second: N#Cc1ccc(CCCN2C(=O)c3ccccc3C2=O)cc1
The melting point of the first is lower: 118 to 120 °C for the first, 138 to 140 °C for the second.

Compared with `CCOC(=O)/C=C/c1ccc(OC(C)C)cc1Oc1ncc(C(F)(F)F)cc1Cl`, `CC(C)NCC(O)COc1ccc2nc3[nH]c(=O)[nH]c3cc2c1` (configuration not stated) is higher in melting point: 84.5 to 85 °C for the first, 262 to 264 °C for the second.

First: c1ccc(-c2cc3nccnc3[nH]2)nc1
Second: Clc1ccc(NC2=Nc3ccccc3CS2)cc1Cl
The melting point of the first is higher: 234 to 235 °C for the first, 207 to 208 °C for the second.

Compared with `C=CCOc1ccc2cc(Br)ccc2c1`, `COc1ccc2cc(C(C)C(=O)ON(C(N)=O)C(C)c3cc4ccccc4s3)ccc2c1` (configuration not stated) is higher in melting point: 35 to 37 °C for the first, 62 to 70 °C for the second.

`O=C(Nc1c([N+](=O)[O-])cnn1-c1c(Cl)cc(C(F)(F)F)c(Cl)c1Cl)C(Cl)Cl` and `CCn1c(C)nc2cc(C(F)(F)F)c(Cl)c([N+](=O)[O-])c21` cannot be ordered by melting point: 112 to 120 °C for the first, 114 to 116 °C for the second.

First: Cc1c(-c2ccc(OC3CCCC3)cc2)n(Cc2ccc(OCCBr)cc2)c2ccc(OCc3ccccc3)cc12
Second: CCCOc1ccc(S(=O)(=O)N2CCN(CC)CC2)cc1-c1nc2cc3ncn(Cc4ccccc4)c3cc2c(=O)[nH]1
The melting point of the first is lower: 110 to 112 °C for the first, 135 to 137 °C for the second.

Compared with `CCCOC(=O)c1cncn1C(C)c1ccccc1` (configuration not stated), `COc1ccc2c(cc(CCC(=O)O)n2S(=O)(=O)c2ccccc2)n1` is lower in melting point: 156 to 157 °C for the first, 136 to 139 °C for the second.

Compared with `CC(C)(C)OC(=O)N[C@H]1CC[C@H](CCOS(C)(=O)=O)CC1`, `CCCc1cn(C)c2c(=O)[nH]c(-c3cc(S(=O)(=O)N4CCN(CCCOC(=O)[C@@H](NC(=O)OC(C)(C)C)C(C)C)CC4)ccc3OCC)nc12` is higher in melting point: 116 °C for the first, 132 to 134 °C for the second.

Compared with `CN(C)c1ccc(C2OC(=O)c3c(Cl)c(Cl)c(Cl)c(Cl)c32)c(N(C)C)c1` (configuration not stated), `CN(C)c1ccccc1C(=O)N1CCC(=O)c2ccc(Cl)cc21` is lower in melting point: 195 to 197 °C for the first, 85.5 to 89 °C for the second.

First: CC(=O)Nc1ccc(C(=O)N2CCOCC2)cc1[N+](=O)[O-]
Second: CC(=O)NC[C@H]1CN(c2ccc(C3=CCCCO3)c(F)c2)C(=O)O1
The melting point of the first is lower: 128 to 132 °C for the first, 161 to 163 °C for the second.

First: O=C(Nc1ccc(-n2nc(C(F)(F)F)cc2C(F)(F)F)cc1)c1sccc1Br
Second: Cc1ccc(OC(=O)N=C2NC(c3ccc(C)cc3)=NC2(C(F)(F)F)C(F)(F)F)cc1
The melting point of the first is lower: 139 to 140 °C for the first, 161 to 163 °C for the second.

Compared with `CCN(CC)CCNC(=O)c1cccc2c(=O)cc(-c3ccc([N+](=O)[O-])cc3)oc12`, `CCCCN=C(O)c1cc([N+](=O)[O-])cc(Sc2ccccc2C(=O)O)c1C(=O)O` is lower in melting point: 207 to 209 °C for the first, 192 to 196 °C for the second.

First: Cc1cc(-c2nc3cccnn3c2-c2ccnc(NC(=O)c3cnccn3)c2)ccc1F
Second: COc1c(NC(=O)c2ccc(C)c(-n3cc(C(=O)NCc4cccnc4)cn3)c2)cc(C(C)(C)C)cc1NS(C)(=O)=O
The melting point of the first is higher: 229 to 230 °C for the first, 127 to 133 °C for the second.

First: C=CCNC(=NC#N)Nc1ccc(C2=NNC(=O)CC2C)cc1 (configuration not stated)
Second: C(=Nc1ccc(-c2c[nH]cn2)cc1)Nc1ccccc1
The melting point of the first is higher: 224 to 226 °C for the first, 123 to 124 °C for the second.

First: O=C(C#Cc1ccc(C(=O)O)cc1)Nc1ccccc1
Second: COC(=O)[C@H](O)[C@@H](N)c1ccc(C(N)=O)cc1
The melting point of the first is higher: 271 to 272 °C for the first, 206 °C for the second.

First: CCc1c(C)[nH]c2cc(OCCN(C)C)c(Cl)cc2c1=O
Second: O=c1[nH]c2cc(Cl)c(Cl)c(Cn3cncn3)c2[nH]c1=O
The melting point of the first is lower: 227 to 230 °C for the first, greater than 320 °C for the second.

First: CC(C)c1cccc(F)c1NC(=S)NN
Second: COC=C(C(=O)OC)c1ccccc1CBr
The melting point of the first is higher: 122 to 124 °C for the first, 88 to 90 °C for the second.

Compared with `O=C(/C=C/c1ccccc1Sc1ccc(Cl)cc1Cl)NCCCCO`, `O=C(O)CCCc1cc2cc(Cl)ccc2n1S(=O)(=O)c1ccccn1` is higher in melting point: 68 to 71 °C for the first, 192 °C for the second.

Compared with `O=C1OCN(C(=O)OCc2ccccc2)[C@H]1CCBr`, `CCCN1C(=O)C2(c3ccccc3)CC(c3ccc(N)cc3)(C2)C1=O` is higher in melting point: 85 °C for the first, 144 to 145 °C for the second.

First: CCCCn1c(=O)c([N+](=O)[O-])c(NC)c2ccccc21
Second: Cc1c2c(nc3ccccc13)CCN(C(=N)N)CC2
The melting point of the first is higher: 225 to 227 °C for the first, 140 °C for the second.

Compared with `COc1cc2c(cc1Br)CC/C2=C\C#N`, `COc1cc2c(cc1F)CCN=C2C1(c2ccccc2Cl)CC1` is lower in melting point: 180 to 182 °C for the first, 172 to 176 °C for the second.

First: Clc1ccc(CN2CC3(COc4cc5c(cc43)OCO5)c3ccccc32)o1 (configuration not stated)
Second: COc1ccc(Cn2c(=O)cc(-c3ccccn3)c3cnc(N4CCC[C@H]4CO)nc32)cc1Cl
The melting point of the first is lower: 148 to 150 °C for the first, 184 to 186 °C for the second.

First: Clc1nsnc1N1CCOCC1
Second: OC(C=CCN1CCC(O)(c2ccc(Cl)cc2)CC1)c1ccc(F)cc1 (configuration not stated)
The melting point of the first is lower: 43 to 45 °C for the first, 126 to 127 °C for the second.

Compared with `N#Cc1nn(-c2c(Cl)cc(C(F)(F)F)cc2Cl)c(Cl)c1I`, `O=c1[nH]c2cc(Cl)cc(Cl)c2c(=O)n1Cc1cccc(I)c1` is higher in melting point: 116 °C for the first, 299 to 302 °C for the second.

First: CCOC(=O)C1(F)C(=O)NC(=O)NC1ON=C1CCC1 (configuration not stated)
Second: CC(=O)OCC(=O)C1(OC(C)=O)CCC2C3C=C(C)C4=CC(=O)CCC4(C)C3CCC21C (configuration not stated)
The melting point of the first is lower: 188 to 189 °C for the first, 213 to 215 °C for the second.

`O=C1N(c2ccccc2Br)Cc2cnc(Nc3ccccc3)nc2N1c1cccc(CO)c1` and `N#Cc1c(N2CCCCC2)cc(-c2ccc3ccccc3c2)c2c1-c1ccccc1C2` cannot be ordered by melting point: 136 °C for the first, 136 to 138 °C for the second.

First: Nc1cc(=O)n(Cc2ccccc2C(F)(F)F)[nH]1
Second: Nc1nc2n(n1)Cc1ccccc1-2
The melting point of the first is lower: 184 °C for the first, 193 to 194 °C for the second.

First: Cc1nc[nH]c1CSCCN=C(NC#N)NCCN
Second: Cc1ccc(C(=O)NCCCCOc2ccc(-n3ccnc3)cc2)cc1
The melting point of the first is higher: 164 to 167 °C for the first, 128 to 130 °C for the second.

Compared with `CC(=O)Oc1ccc(Cn2ccnc2SC(C)=O)cc1F`, `COC(=O)c1c(Cl)cc(Cl)cc1NC(=O)CSc1ccc(NC(=O)c2ccco2)cc1` is higher in melting point: 78 to 80 °C for the first, 133 to 135 °C for the second.

Compared with `CS(=O)c1ccccc1-c1cc2[nH]c3ccc(O)cc3c2c2c1C(=O)NC2=O` (configuration not stated), `Cc1n[nH]cc1-c1cccc2c1nnn2-c1ccnc(NC2CCN(S(C)(=O)=O)CC2)n1` is lower in melting point: 321 to 323 °C for the first, 231 to 232 °C for the second.

First: CC1(C)CC(O)c2cc(Br)ccc2O1 (configuration not stated)
Second: NC(=O)Nc1ccc2c(c1)N1CCN=C1S2
The melting point of the first is lower: 97 to 99 °C for the first, 300 °C for the second.

First: COc1ccc(/C=C/c2nc3c([nH]2)c(=O)n(C)c(=O)n3C)c(OC)c1C
Second: COC1(c2ccc(C=Cc3cc(F)cc(F)c3NC(=O)C(C)(C)C)cc2)CCOCC1
The melting point of the first is higher: greater than 280 °C for the first, 77 to 79 °C for the second.

First: CC(=O)N1CCN(C2CCN(c3ccc(NC(=O)c4cnn(-c5ccc(Cl)cc5)c4C)cc3C#N)CC2)CC1
Second: CC(=O)N(CC(C)C)C1NC(=O)N(c2ccc(C(=O)O)cc2)C(=O)N1
The melting point of the first is higher: 247 °C for the first, 191 to 193 °C for the second.

First: COCCOc1ccc(N)c([N+](=O)[O-])c1
Second: COc1cccc(N2CCN(CCC(O)COc3ccccc3)CC2)c1 (configuration not stated)
The melting point of the first is higher: 89 to 90 °C for the first, 58 to 60 °C for the second.

— a melting point compilation (Tetko et al.; mined from patent text by program, amines drawn as free bases though some values may be those of a salt)
